Test results as given in ChEMBL document CHEMBL1137129, “Synthesis and structure-activity relationships of novel IKK-beta inhibitors. Part 2: Improvement of in vitro activity” (Bioorg Med Chem Lett, 2004).

Key:
A549 = experiment: TNF-alpha-induced RANTES production in A549 cells using ELISA assay; assay type: functional, cell-based; conditions: Homo sapiens
[1] = molecular target: T1, Inhibitor of nuclear factor kappa-B kinase subunit beta (Homo sapiens, UniProt O14920); experiment: Inhibitory activity against recombinant human I-kappa-B-kinase beta
T1 sequence (O14920 whole entry): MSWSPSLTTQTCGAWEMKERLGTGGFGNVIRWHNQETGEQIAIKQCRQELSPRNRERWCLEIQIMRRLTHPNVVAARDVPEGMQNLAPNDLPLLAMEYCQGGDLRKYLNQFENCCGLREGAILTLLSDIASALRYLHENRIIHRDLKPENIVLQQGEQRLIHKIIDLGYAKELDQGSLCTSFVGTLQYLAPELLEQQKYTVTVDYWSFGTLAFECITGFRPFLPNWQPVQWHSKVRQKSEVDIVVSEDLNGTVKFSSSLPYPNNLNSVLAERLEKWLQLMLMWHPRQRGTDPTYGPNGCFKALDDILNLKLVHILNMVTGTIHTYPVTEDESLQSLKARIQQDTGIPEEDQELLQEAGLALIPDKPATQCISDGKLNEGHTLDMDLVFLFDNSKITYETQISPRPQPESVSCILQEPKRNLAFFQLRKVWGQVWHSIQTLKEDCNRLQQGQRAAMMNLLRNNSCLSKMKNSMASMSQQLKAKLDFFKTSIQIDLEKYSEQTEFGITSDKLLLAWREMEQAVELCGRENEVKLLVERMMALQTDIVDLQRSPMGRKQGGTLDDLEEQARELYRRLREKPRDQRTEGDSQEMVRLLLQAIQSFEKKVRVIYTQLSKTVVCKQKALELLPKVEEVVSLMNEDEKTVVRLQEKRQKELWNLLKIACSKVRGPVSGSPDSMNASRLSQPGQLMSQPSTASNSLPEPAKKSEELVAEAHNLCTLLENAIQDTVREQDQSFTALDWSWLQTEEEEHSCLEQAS

[2] = Inhibition of Mitogen activated protein kinase kinase 4
PBMC = experiment: Tested for LPS induced TNFalpha production in human PBMC cells; assay type: functional, cell-based
[3] = molecular target: T2, Inhibitor of nuclear factor kappa-B kinase subunit alpha (Homo sapiens, UniProt O15111); experiment: Inhibition of I-kappa-B-kinase alpha
T2 sequence (O15111 whole entry): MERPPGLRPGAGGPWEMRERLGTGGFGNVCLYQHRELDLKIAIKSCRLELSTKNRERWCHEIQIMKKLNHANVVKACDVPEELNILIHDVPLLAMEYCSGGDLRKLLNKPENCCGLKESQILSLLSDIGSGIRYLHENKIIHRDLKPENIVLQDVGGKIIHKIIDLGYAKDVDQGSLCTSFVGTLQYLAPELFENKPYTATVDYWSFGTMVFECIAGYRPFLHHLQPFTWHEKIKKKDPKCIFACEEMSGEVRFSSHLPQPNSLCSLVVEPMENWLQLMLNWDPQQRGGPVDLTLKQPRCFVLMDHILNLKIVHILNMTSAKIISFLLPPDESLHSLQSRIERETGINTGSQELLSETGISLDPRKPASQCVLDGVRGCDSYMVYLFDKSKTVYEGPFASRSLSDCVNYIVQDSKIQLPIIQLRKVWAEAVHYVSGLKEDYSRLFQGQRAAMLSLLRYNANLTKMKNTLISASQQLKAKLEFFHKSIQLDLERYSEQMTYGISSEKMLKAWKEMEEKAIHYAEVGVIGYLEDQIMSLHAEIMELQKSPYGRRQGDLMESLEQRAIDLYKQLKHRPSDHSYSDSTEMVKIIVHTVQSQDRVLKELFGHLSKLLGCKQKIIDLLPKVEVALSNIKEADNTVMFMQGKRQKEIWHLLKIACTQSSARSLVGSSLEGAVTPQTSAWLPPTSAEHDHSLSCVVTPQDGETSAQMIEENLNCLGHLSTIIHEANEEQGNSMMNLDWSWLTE

[4] = Tested for anti-CD3/anti-CD28-induced IL-2 production in Jurkat T-cell; assay type: functional, cell-based; conditions: Homo sapiens

Structure (SMILES) | IC50 (A549) [nM] | IC50 [1] [nM] | IC50 [2] [µM] | IC50 [3] [nM] | IC50 [4] [nM] | IC50 (PBMC) [nM]
CC(N)c1cc(-c2ccccc2O)nc(N)c1C#N (stereo not given) | 4000 | 150 | – | – | – | –
N#Cc1c(C(N)CCc2ccccc2)cc(-c2ccccc2O)nc1N (stereo not given) | 15000 | 730 | – | – | – | –
CC(=O)Nc1nc(-c2ccccc2O)cc(C2CCCNC2)c1C#N (stereo not given) | 1500 | 330 | – | – | – | –
N#Cc1c(CC(N)c2ccccc2)cc(-c2ccccc2O)nc1N (stereo not given) | 2000 | 110 | – | – | – | –
N#Cc1c(C(N)Cc2ccc(F)cc2)cc(-c2ccccc2O)nc1N (stereo not given) | 5000 | 40 | – | – | – | –
CC(C)C(N)c1cc(-c2ccccc2O)nc(N)c1C#N (stereo not given) | 5000 | 240 | – | – | – | –
CN1CCCC(c2cc(-c3ccccc3O)nc(N)c2C#N)C1 (stereo not given) | 1000 | 230 | – | – | – | –
CC(N)Cc1cc(-c2ccccc2O)nc(N)c1C#N (stereo not given) | 3000 | 470 | – | – | – | –
CCCCC(N)c1cc(-c2ccccc2O)nc(N)c1C#N (stereo not given) | 15000 | 480 | – | – | – | –
N#Cc1c(C2CCCCN2)cc(-c2ccccc2O)nc1N (stereo not given) | 6000 | 530 | – | – | – | –
CNc1nc(-c2ccccc2O)cc(C2CCCNC2)c1C#N (stereo not given) | 20 | 6500 | – | – | – | –
COc1ccc(CC(N)c2cc(-c3ccccc3O)nc(N)c2C#N)cc1 (stereo not given) | 5000 | 80 | – | – | – | –

Second part, led by results:

IC50 (A549) [nM] | IC50 [1] [nM] | IC50 [2] [µM] | IC50 [3] [nM] | IC50 [4] [nM] | Structure (SMILES) | IC50 (PBMC) [nM]
400 | 300 | – | – | – | N#Cc1c(C2CCNCC2)cc(-c2ccccc2O)nc1N | –
– | 6200 | – | – | – | N#Cc1c(-c2cccnc2)cc(-c2ccccc2O)nc1N | –
8000 | 60 | – | – | – | N#Cc1c(C(N)Cc2ccccc2)cc(-c2ccccc2O)nc1N (stereo not given) | –
2000 | 230 | – | – | – | N#Cc1c(N)nc(-c2ccccc2O)c(F)c1C1CCCNC1 (stereo not given) | –
– | > 20000 | – | – | – | N#Cc1c(C2CCCNC2)cc(-c2ccccc2)nc1N (stereo not given) | –
800 | 70 | – | – | – | N#Cc1c(CCN)cc(-c2ccccc2O)nc1N | –
300 | 25 | > 20 | 450 | 600 | N#Cc1c(C2CCCNC2)cc(-c2ccccc2O)nc1N (stereo not given) | 400
